Data published in US20050215601A1, “Therapeutic agent for rheumatic disease comprising benzamide derivative as active ingredient” (SANTEN PHARMACEUTICAL CO., LTD., priority 2002, published 2005).

Test system: type II collagen-induced arthritis of rats
Test: Effects on type II collagen-induced arthritis (hind paw volume)
Assay type: in vivo, rat
Settings: rats (female) sensitized with bovine type II collagen; test compound 6 mg/kg orally immediately before, 7 and 14 days after primary sensitization; average of eight per group; FIG. 1
Description: 1) Effects on Type II Collagen-Induced Arthritis
Model of type II collagen-induced arthritis has been widely used as an animal model for evaluating effects of drugs on rheumatic diseases (Nature, 283, 666-668 (1980)). Anti-arthritic effects of the present compounds were evaluated and studied according to this model.
A solution of bovine joint cartilage-derived type II collagen in 0.05 N acetic acid (2 mg/ml) was mixed with Freund's incomplete adjuvant of the same volume to prepare an emulsion (final concentration: 1 mg/ml).
As a primary sensitization, this emulsion was injected intradermally into five sites on the back of each rat (female, seven weeks old, weight: approximately 130 to 160 g) at a dose of 100 μl (total 500 μl: corresponding to 500 μg of type II collagen per rat). Seven days after the primary sensitization, 100 μl of this emulsion was injected intradermally into a root of the rat tail again (secondary sensitization). 0.5 ml/kg of a test compound solution (the test compound was dissolved in a 5% carboxymethylcellulose solution as a vehicle) was orally administered immediately before the primary sensitization, 7 days after the primary sensitization and 14 days after the primary sensitization. The dosage of test compound was adjusted to 6 mg/kg. […]

Nc1ccccc1NC(=O)c1ccc(CNC(=O)COc2cccnc2)cc1 [Test compound 2, N-(2-aminophenyl)-4-[N-(pyridin-3 yl)oxyacetylaminomethyl]benzamide]
increase in hind paw volume: any increase in hind paw volume could not be found
